In the NIST ThermoML archive (doi:10.1016/j.fluid.2014.08.018):
± gives the expanded uncertainty stated by the source.

Settings: Liquid, Vibrating tube method

With `CCC[n+]1ccccc1C.O=S(=O)([N-]S(=O)(=O)C(F)(F)F)C(F)(F)F` the mass density (283.15 K, 100 kPa) was 1478.5 ± 0.7 kg/m3, the mass density (283.15 K, 2500 kPa) was 1480.5 ± 0.7 kg/m3 and the mass density (283.15 K, 5000 kPa) was 1482.1 ± 0.7 kg/m3. The mass density (283.15 K, 7500 kPa) was 1483.7 ± 0.8 kg/m3, the mass density (283.15 K, 10000 kPa) was 1485.4 ± 0.8 kg/m3 and the mass density (283.15 K, 15000 kPa) was 1488.6 ± 0.9 kg/m3. For the same molecule, the mass density (283.15 K, 20000 kPa) was 1491.5 ± 1 kg/m3, the mass density (283.15 K, 25000 kPa) was 1494.5 ± 1.1 kg/m3 and the mass density (283.15 K, 30000 kPa) was 1497.3 ± 1.2 kg/m3. It also gave a mass density (283.15 K, 35000 kPa) of 1500.1 ± 1.3 kg/m3, a mass density (283.15 K, 45000 kPa) of 1505.5 ± 1.6 kg/m3 and a mass density (283.15 K, 55000 kPa) of 1510.5 ± 1.8 kg/m3. For the same molecule, the mass density (283.15 K, 65000 kPa) was 1515.3 ± 2 kg/m3, the mass density (288.15 K, 100 kPa) was 1473.7 ± 0.6 kg/m3 and the mass density (288.15 K, 2500 kPa) was 1475.7 ± 0.7 kg/m3. The mass density (288.15 K, 5000 kPa) was 1477.3 ± 0.7 kg/m3, the mass density (288.15 K, 7500 kPa) was 1479 ± 0.8 kg/m3 and the mass density (288.15 K, 10000 kPa) was 1480.6 ± 0.8 kg/m3. It also gave a mass density (288.15 K, 15000 kPa) of 1483.7 ± 0.9 kg/m3, a mass density (288.15 K, 20000 kPa) of 1486.8 ± 1 kg/m3 and a mass density (288.15 K, 25000 kPa) of 1489.9 ± 1.1 kg/m3. For the same molecule, the mass density (288.15 K, 30000 kPa) was 1492.7 ± 1.2 kg/m3, the mass density (288.15 K, 35000 kPa) was 1495.6 ± 1.3 kg/m3 and the mass density (288.15 K, 45000 kPa) was 1500.9 ± 1.5 kg/m3. The mass density (288.15 K, 55000 kPa) was 1506 ± 1.8 kg/m3, the mass density (288.15 K, 65000 kPa) was 1510.9 ± 2 kg/m3 and the mass density (293.15 K, 100 kPa) was 1469 ± 0.6 kg/m3. It also gave a mass density (293.15 K, 2500 kPa) of 1470.9 ± 0.7 kg/m3, a mass density (293.15 K, 5000 kPa) of 1472.6 ± 0.7 kg/m3 and a mass density (293.15 K, 7500 kPa) of 1474.3 ± 0.8 kg/m3. It also gave a mass density (293.15 K, 10000 kPa) of 1475.9 ± 0.8 kg/m3, a mass density (293.15 K, 15000 kPa) of 1479.2 ± 0.9 kg/m3 and a mass density (293.15 K, 20000 kPa) of 1482.3 ± 1 kg/m3. For the same molecule, the mass density (293.15 K, 25000 kPa) was 1485.3 ± 1.1 kg/m3, the mass density (293.15 K, 30000 kPa) was 1488.3 ± 1.2 kg/m3 and the mass density (293.15 K, 35000 kPa) was 1491.1 ± 1.3 kg/m3. It also gave a mass density (293.15 K, 45000 kPa) of 1496.6 ± 1.5 kg/m3, a mass density (293.15 K, 55000 kPa) of 1501.8 ± 1.7 kg/m3 and a mass density (293.15 K, 65000 kPa) of 1506.7 ± 2 kg/m3. The mass density (298.15 K, 100 kPa) was 1464.2 ± 0.6 kg/m3, the mass density (298.15 K, 2500 kPa) was 1466.1 ± 0.7 kg/m3 and the mass density (298.15 K, 5000 kPa) was 1467.8 ± 0.7 kg/m3. It also gave a mass density (298.15 K, 7500 kPa) of 1469.6 ± 0.8 kg/m3, a mass density (298.15 K, 10000 kPa) of 1471.2 ± 0.8 kg/m3 and a mass density (298.15 K, 15000 kPa) of 1474.5 ± 0.9 kg/m3. It also gave a mass density (298.15 K, 20000 kPa) of 1477.7 ± 1 kg/m3, a mass density (298.15 K, 25000 kPa) of 1480.8 ± 1.1 kg/m3 and a mass density (298.15 K, 30000 kPa) of 1483.8 ± 1.2 kg/m3. The mass density (298.15 K, 35000 kPa) was 1486.6 ± 1.3 kg/m3, the mass density (298.15 K, 45000 kPa) was 1492.2 ± 1.5 kg/m3 and the mass density (298.15 K, 55000 kPa) was 1497.4 ± 1.7 kg/m3. For the same molecule, the mass density (298.15 K, 65000 kPa) was 1502.5 ± 1.9 kg/m3, the mass density (303.15 K, 100 kPa) was 1459.5 ± 0.6 kg/m3 and the mass density (303.15 K, 2500 kPa) was 1461.5 ± 0.7 kg/m3. For the same molecule, the mass density (303.15 K, 5000 kPa) was 1463.2 ± 0.7 kg/m3, the mass density (303.15 K, 7500 kPa) was 1465 ± 0.8 kg/m3 and the mass density (303.15 K, 10000 kPa) was 1466.6 ± 0.8 kg/m3. For the same molecule, the mass density (303.15 K, 15000 kPa) was 1470 ± 0.9 kg/m3, the mass density (303.15 K, 20000 kPa) was 1473.2 ± 1 kg/m3 and the mass density (303.15 K, 25000 kPa) was 1476.4 ± 1.1 kg/m3. The mass density (303.15 K, 30000 kPa) was 1479.5 ± 1.2 kg/m3, the mass density (303.15 K, 35000 kPa) was 1482.4 ± 1.3 kg/m3 and the mass density (303.15 K, 45000 kPa) was 1488 ± 1.5 kg/m3. For the same molecule, the mass density (303.15 K, 55000 kPa) was 1493.3 ± 1.7 kg/m3, the mass density (303.15 K, 65000 kPa) was 1498.4 ± 1.9 kg/m3 and the mass density (308.15 K, 100 kPa) was 1454.8 ± 0.6 kg/m3. It also gave a mass density (308.15 K, 2500 kPa) of 1456.8 ± 0.7 kg/m3, a mass density (308.15 K, 5000 kPa) of 1458.5 ± 0.7 kg/m3 and a mass density (308.15 K, 7500 kPa) of 1460.3 ± 0.8 kg/m3. It also gave a mass density (308.15 K, 10000 kPa) of 1462 ± 0.8 kg/m3, a mass density (308.15 K, 15000 kPa) of 1465.4 ± 0.9 kg/m3 and a mass density (308.15 K, 20000 kPa) of 1468.7 ± 1 kg/m3. It also gave a mass density (308.15 K, 25000 kPa) of 1471.9 ± 1.1 kg/m3, a mass density (308.15 K, 30000 kPa) of 1475 ± 1.2 kg/m3 and a mass density (308.15 K, 35000 kPa) of 1478 ± 1.3 kg/m3. For the same molecule, the mass density (308.15 K, 45000 kPa) was 1483.7 ± 1.5 kg/m3, the mass density (308.15 K, 55000 kPa) was 1489.1 ± 1.7 kg/m3 and the mass density (308.15 K, 65000 kPa) was 1494.2 ± 1.9 kg/m3. For the same molecule, the mass density (313.15 K, 100 kPa) was 1450 ± 0.6 kg/m3, the mass density (313.15 K, 2500 kPa) was 1452.1 ± 0.7 kg/m3 and the mass density (313.15 K, 5000 kPa) was 1453.9 ± 0.7 kg/m3. The mass density (313.15 K, 7500 kPa) was 1455.8 ± 0.8 kg/m3, the mass density (313.15 K, 10000 kPa) was 1457.5 ± 0.8 kg/m3 and the mass density (313.15 K, 15000 kPa) was 1461 ± 0.9 kg/m3. It also gave a mass density (313.15 K, 20000 kPa) of 1464.3 ± 1 kg/m3, a mass density (313.15 K, 25000 kPa) of 1467.5 ± 1.1 kg/m3 and a mass density (313.15 K, 30000 kPa) of 1470.7 ± 1.2 kg/m3. The mass density (313.15 K, 35000 kPa) was 1473.7 ± 1.3 kg/m3, the mass density (313.15 K, 45000 kPa) was 1479.5 ± 1.5 kg/m3 and the mass density (313.15 K, 55000 kPa) was 1485 ± 1.7 kg/m3. The mass density (313.15 K, 65000 kPa) was 1490.2 ± 1.9 kg/m3, the mass density (318.15 K, 100 kPa) was 1445.4 ± 0.6 kg/m3 and the mass density (318.15 K, 2500 kPa) was 1447.4 ± 0.7 kg/m3. For the same molecule, the mass density (318.15 K, 5000 kPa) was 1449.3 ± 0.7 kg/m3, the mass density (318.15 K, 7500 kPa) was 1451.1 ± 0.8 kg/m3 and the mass density (318.15 K, 10000 kPa) was 1452.9 ± 0.8 kg/m3. It also gave a mass density (318.15 K, 15000 kPa) of 1456.4 ± 0.9 kg/m3, a mass density (318.15 K, 20000 kPa) of 1459.9 ± 1 kg/m3 and a mass density (318.15 K, 25000 kPa) of 1463.1 ± 1.1 kg/m3. The mass density (318.15 K, 30000 kPa) was 1466.4 ± 1.2 kg/m3, the mass density (318.15 K, 35000 kPa) was 1469.4 ± 1.3 kg/m3 and the mass density (318.15 K, 45000 kPa) was 1475.3 ± 1.5 kg/m3. For the same molecule, the mass density (318.15 K, 55000 kPa) was 1480.8 ± 1.7 kg/m3, the mass density (318.15 K, 65000 kPa) was 1486.1 ± 1.9 kg/m3 and the mass density (323.15 K, 100 kPa) was 1440.7 ± 0.6 kg/m3. The mass density (323.15 K, 2500 kPa) was 1442.8 ± 0.7 kg/m3, the mass density (323.15 K, 5000 kPa) was 1444.7 ± 0.7 kg/m3 and the mass density (323.15 K, 7500 kPa) was 1446.7 ± 0.7 kg/m3. It also gave a mass density (323.15 K, 10000 kPa) of 1448.5 ± 0.8 kg/m3, a mass density (323.15 K, 15000 kPa) of 1452 ± 0.9 kg/m3 and a mass density (323.15 K, 20000 kPa) of 1455.5 ± 1 kg/m3. For the same molecule, the mass density (323.15 K, 25000 kPa) was 1458.7 ± 1.1 kg/m3, the mass density (323.15 K, 30000 kPa) was 1462 ± 1.2 kg/m3 and the mass density (323.15 K, 35000 kPa) was 1465.2 ± 1.3 kg/m3. For the same molecule, the mass density (323.15 K, 45000 kPa) was 1471.2 ± 1.5 kg/m3, the mass density (323.15 K, 55000 kPa) was 1476.9 ± 1.7 kg/m3 and the mass density (323.15 K, 65000 kPa) was 1482.1 ± 1.9 kg/m3. It also gave a mass density (328.15 K, 100 kPa) of 1436.1 ± 0.6 kg/m3, a mass density (328.15 K, 2500 kPa) of 1438.3 ± 0.7 kg/m3 and a mass density (328.15 K, 5000 kPa) of 1440.2 ± 0.7 kg/m3. For the same molecule, the mass density (328.15 K, 7500 kPa) was 1442.1 ± 0.7 kg/m3, the mass density (328.15 K, 10000 kPa) was 1443.9 ± 0.8 kg/m3 and the mass density (328.15 K, 15000 kPa) was 1447.5 ± 0.9 kg/m3. For the same molecule, the mass density (328.15 K, 20000 kPa) was 1451 ± 1 kg/m3, the mass density (328.15 K, 25000 kPa) was 1454.5 ± 1.1 kg/m3 and the mass density (328.15 K, 30000 kPa) was 1457.8 ± 1.2 kg/m3. It also gave a mass density (328.15 K, 35000 kPa) of 1460.9 ± 1.3 kg/m3, a mass density (328.15 K, 45000 kPa) of 1467.1 ± 1.5 kg/m3 and a mass density (328.15 K, 55000 kPa) of 1472.7 ± 1.7 kg/m3. It also gave a mass density (328.15 K, 65000 kPa) of 1478.1 ± 1.9 kg/m3, a mass density (333.15 K, 100 kPa) of 1431.4 ± 0.6 kg/m3 and a mass density (333.15 K, 2500 kPa) of 1433.6 ± 0.6 kg/m3. The mass density (333.15 K, 5000 kPa) was 1435.5 ± 0.7 kg/m3, the mass density (333.15 K, 7500 kPa) was 1437.5 ± 0.7 kg/m3 and the mass density (333.15 K, 10000 kPa) was 1439.4 ± 0.8 kg/m3. The mass density (333.15 K, 15000 kPa) was 1443.1 ± 0.9 kg/m3, the mass density (333.15 K, 20000 kPa) was 1446.6 ± 1 kg/m3 and the mass density (333.15 K, 25000 kPa) was 1450.1 ± 1.1 kg/m3. For the same molecule, the mass density (333.15 K, 30000 kPa) was 1453.4 ± 1.2 kg/m3, the mass density (333.15 K, 35000 kPa) was 1456.7 ± 1.2 kg/m3 and the mass density (333.15 K, 45000 kPa) was 1462.8 ± 1.4 kg/m3. For the same molecule, the mass density (333.15 K, 55000 kPa) was 1468.6 ± 1.6 kg/m3 and the mass density (333.15 K, 65000 kPa) was 1474.2 ± 1.8 kg/m3.
